Consider 63 compounds from PubChem BioAssay AID732 (Emory University Molecular Libraries Screening Center, 2007).

SMILES strings stand for the structures. Calls of active or inactive are those of the source. How the calls were made is not given here.

The assay has as its system in vivo angiogenesis, blood vessel count. Put plainly: angiogenesis inhibition in living animals, in vivo study, HTS (AID 732).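 Further: zebrafish embryos dosed at one day post fertilization; 0% = reference inhibitor and 100% = plate mean.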 Conditions: stronger effect = lower value;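 tested at 30 µM in the well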.

With `CC(=O)SCC[N+](C)(C)C`, the vessel count % control is 99% (inactive). The value for `CN(C)CCCCSC(=N)N` was 105% (inactive).

As for `O=C(O)c1nn(Cc2ccc(Cl)cc2Cl)c2ccccc12`, the vessel count % control was 87.2% (inactive). In the case of `COc1c2c(nc3ccccc13)OC(C(C)(O)CO)C2` (stereo not drawn), the vessel count % control is 120% (inactive). Under `C[N+](C)(C)CCC(=O)c1cccc2ccccc12` stands 0% (inactive); under `COc1ccccc1CNCCCCCCNCCCCCCCCNCCCCCCNCc1ccccc1OC`, 113% (inactive). Turning to `CN(CCOc1ccc(C[C@H](Nc2ccccc2C(=O)c2ccccc2)C(=O)O)cc1)c1ccccn1`, the vessel count % control was 100% (inactive). For `NCCCCC(=O)O`, the vessel count % control was 84.3% (inactive). Take `CCN(CC)CC(=O)Nc1c(C)cccc1C`: the vessel count % control is 73.7% (inactive). Consider `NC1C=CC=C(C(=O)O)C1` (stereo not drawn), for which the vessel count % control was 114% (inactive). Take `COc1ccc2cc([C@H](C)C(=O)O)ccc2c1`: the vessel count % control was 101% (inactive). On to `CC(C)NCC(O)c1ccc(NS(C)(=O)=O)cc1` (stereo not drawn), for which the vessel count % control is 95.6% (inactive). In the case of `CCOC(=O)Nc1ccc(NCc2ccc(F)cc2)nc1N`, the vessel count % control was 83.6% (inactive). In the case of `CC1=C(CC(=O)O)c2cc(F)ccc2/C1=C\c1ccc(S(C)=O)cc1` (stereo not drawn), the vessel count % control was 89.8% (inactive).

On to `CCn1ccnc1CC1COc2ccccc2O1` (stereo not drawn), for which the vessel count % control was 100% (inactive). For `CSc1ccc2c(c1)N(CCC1CCCCN1C)c1ccccc1S2` (stereo not drawn), the vessel count % control was 102% (inactive).

For the compound `Oc1ccc2c3c1O[C@H]1[C@@H](O)CC[C@@]4(O)C(C2)N(CC2CCC2)CCC314` (stereo partly drawn), the vessel count % control is 81.2% (inactive).

Take `C(=C\c1ccccc1)/CN1CCN(C(c2ccccc2)c2ccccc2)CC1`: the vessel count % control was 88.9% (inactive). Regarding `NOCC(=O)O`, the vessel count % control is 114% (inactive). For the compound `CNc1cc(NS(=O)(=O)c2ccc(N)cc2)nc(NC)n1`, the vessel count % control is 81.3% (inactive). As to `CN1CCN(CC/C=C2/c3ccccc3Sc3ccc(S(=O)(=O)N(C)C)cc32)CC1`, the vessel count % control was 98.3% (inactive). Under `CNC(=O)Oc1ccc2c(c1)[C@]1(C)CCN(C)[C@@H]1N2C` stands 120% (inactive); under `C=C[C@H]1CN2CCC1C[C@H]2[C@H](O)c1ccnc2ccc(OC)cc12` (stereo partly drawn), 98% (inactive); under `CC(C)C[C@H]1C(=O)N2CCC[C@H]2[C@]2(O)O[C@](NC(=O)[C@@H]3C=C4c5cccc6[nH]c(Br)c(c56)C[C@H]4N(C)C3)(C(C)C)C(=O)N12`, 110% (inactive).

For `CN1CCN2c3ccccc3Cc3ccccc3C2C1` (stereo not drawn), the vessel count % control was 72.3% (inactive).

For `C[N+](C)(C)CC#CCOC(=O)Nc1cccc(Cl)c1`, the vessel count % control is 81.2% (inactive). Regarding `C/C=C/CC(C)C(O)C1C(=O)NC(CC)C(=O)N(C)CC(=O)N(C)C(CC(C)C)C(=O)NC(C(C)C)C(=O)N(C)C(CC(C)C)C(=O)NC(C)C(=O)NC(C)C(=O)N(C)C(CC(C)C)C(=O)N(C)C(CC(C)C)C(=O)N(C)C(C(C)C)C(=O)N1C` (stereo not drawn), the vessel count % control was 108% (inactive). Consider `Cn1c(=O)c2[nH]c(C3CCCC3)nc2n(C)c1=O`, for which the vessel count % control was 104% (inactive). The value for `CCN(CC)C(=S)SSC(=S)N(CC)CC` was 0% (inactive); that for `CC(C)(C)c1cc(C=C(C#N)C#N)cc(C(C)(C)C)c1O` was 0% (inactive); that for `CC(N=C(NC#N)Nc1ccncc1)C(C)(C)C` (stereo not drawn) was 98.9% (inactive). The value for `COc1ccc2c(c1)c(CC(=O)O)c(C)n2C(=O)c1ccccc1` was 116% (inactive).

Turning to `Cn1c(=O)[nH]c2ncn(C)c2c1=O`, the vessel count % control was 95.7% (inactive). `COc1cc2c(cc1O)CC[C@@H]1[C@@H]2CC[C@]2(C)[C@@H](O)CC[C@@H]12`: the vessel count % control was 83.1% (inactive). For the compound `O=C(Nc1ccc([N+](=O)[O-])cc1Cl)c1cc(Cl)ccc1O`, the vessel count % control was 0% (inactive). `C[C@]12CCC(=O)C=C1CC[C@@H]1[C@@H]2CC[C@]2(C)C(=O)CC[C@@H]12`: the vessel count % control was 102% (inactive). Under `CN(C)CCCC1(c2ccc(F)cc2)OCc2cc(C#N)ccc21` (stereo not drawn) stands 99.8% (inactive); under `COc1ccc(CNC(=O)/C=C/c2ccc3[nH]cc(CCN(C)C)c3c2)cc1`, 75.8% (inactive).

Turning to `CCOC(=O)c1ncn2c1[C@@H]1CCCN1C(=O)c1cc(OC)ccc1-2`, the vessel count % control was 102% (inactive). Under `CP(=O)(O)CCCN` stands 76.1% (inactive); under `OC[C@H]1O[C@@H](n2cnc3c(NCCc4ccccc4)ncnc32)C(O)[C@H]1O` (stereo partly drawn), 79.4% (inactive); under `C=CCN1CCc2c(cc(O)c(O)c2Br)[C@@H](c2ccccc2)C1`, 85% (inactive). Regarding `c1ccc(CCCN2CCN(CCOC(c3ccccc3)c3ccccc3)CC2)cc1`, the vessel count % control was 101% (inactive).

For `NCCc1c[nH]c2ccccc12`, the vessel count % control was 118% (inactive). With `CNCCC(Oc1ccccc1C)c1ccccc1` (stereo not drawn), the vessel count % control is 122% (inactive). Turning to `NC(Cc1ccc(N(CCCl)CCCl)cc1)C(=O)O` (stereo not drawn), the vessel count % control was 123% (inactive). In the case of `COc1cc2c(cc1OC)-c1cc(=Nc3c(C)cc(C)cc3C)n(C)c(=O)n1CC2`, the vessel count % control was 58.5% (inactive).

As to `Cc1ccc2c(c1)C(N1CCN(C)CC1)=Nc1cccnc1N2`, the vessel count % control was 127% (inactive). On to `CCCCCCCCCCCCCCC[C@H](O)[C@H](N)CO`, for which the vessel count % control was 101% (inactive). With `OCc1cnc[nH]1`, the vessel count % control was 106% (inactive).

As to `NC(N)=NCCCCN=C(N)N`, the vessel count % control is 88% (inactive). Regarding `C[N+](C)(C)CCCCCCCCCC[N+](C)(C)C`, the vessel count % control is 100% (inactive). Under `c1cnc(N2CCN(Cc3ccc4c(c3)OCO4)CC2)nc1` stands 106% (inactive); under `O=c1[nH]c(=O)c2nc3ccccc3nc2[nH]1`, 129% (inactive); under `CCN(CC)CCOC(=O)C1(C2CCCCC2)CCCCC1`, 86.4% (inactive).

Turning to `CN(C)CC[C@@H](c1ccc(Cl)cc1)c1ccccn1`, the vessel count % control is 107% (inactive). Consider `CC(O)C(C)OC(=O)[C@@H]1C[C@@H]2c3cccc4c3c(cn4C(C)C)C[C@H]2N(C)C1` (stereo partly drawn), for which the vessel count % control was 90.9% (inactive). Consider `CC(N)C(=O)OC(C)(C)Cc1ccc(Cl)cc1` (stereo not drawn), for which the vessel count % control is 112% (inactive).

In the case of `CCCC[N+]1(C)C2CC(OC(=O)[C@H](CO)c3ccccc3)CC1C1OC12` (stereo partly drawn), the vessel count % control is 107% (inactive). Consider `CC(C)(Sc1ccc(CCN(CCCCC2CCCCC2)C(=O)NC2CCCCC2)cc1)C(=O)O`, for which the vessel count % control was 103% (inactive). Turning to `CCC1(C2=NCCN2)Cc2ccccc2O1` (stereo not drawn), the vessel count % control was 68.5% (inactive).

Consider `CN1C2CCC1CC(OC(c1ccccc1)c1ccccc1)C2` (stereo not drawn), for which the vessel count % control was 91.6% (inactive). The value for `O=C1Nc2ccc(I)cc2/C1=C/c1cc(Br)c(O)c(Br)c1` was 69.8% (inactive).
